Where two headings read alike, the source gives them in different places.
Experiments:
Assay type in all cases: in vivo
[1] = test system: Eggs of Tetranychus Cinnabarinus; experiment: Activity assay of eggs of Tetranychus cinnabarinus (spray method, ovicidal); details: Tetranychus cinnabarinus, read-out: ovicidal activity
Method: According to the solubility of the test compound, the crude drug was dissolved in N N-dimethylformamide, and then prepared into a test solution of the desired concentration with 1‰ Tween 80 aqueous solution. The content of N. N-dimethylformamide in the solution should not exceed 10%.
Spray method. The broad bean leaves with petioles were cut and inserted into a bottle with water. A certain number of female mites were placed, 24h later, adult mites were removed, and spray treatment was performed in 24 h. The experiment was repeated three times, and a blank control was set, and placed to an observation room (26±2° C., humidity 70%˜80%, 16h light per day) for culture. When the blank control group was incubated, the results were investigated. The non-incubated ones were used as death for investigation.

[2] = test system: adult Tetranychus cinnabarinus; experiment: Activity assay of adult Tetranychus cinnabarinus (whole-plant spray on bean seedlings); details: 48 h, read-out: adult mite-killing activity
Method: According to the solubility of the test compound, the crude drug was dissolved in N, N-dimethlfornamide, and then prepared into a test solution of the desired concentration with 1‰ Tween 80 aqueous solution. The content of N,N-dimethylformamide in the solution should not exceed 10%.
Two euphylla bean seedlings were taken, after inoculated with adult Tetranychus cinnabarinus and the base number was investigated, whole plants were sprayed with a hand-held sprayer. The experiment was repeated three times for each treatment, after treatment, placed in a standard observation room after treatment, to investigate the survival number of mites in 48 hand calculate the death rate.

[3] = test system: Tetranychus cinnabarinus Nymphs; experiment: Activity assay of Tetranychus cinnabarinus nymphs (spray on broad bean leaves)
Method: According to the solubility of the test compound, the crude drug was dissolved in N, N-dimethylformamide, and then prepared into a test solution of the desired concentration with 1‰ Tween 80 aqueous solution. The content of N,N-dimethylformamide in the solution should not exceed 10%.
The broad bean leaves with petioles were cut and inserted into a small bottle with water. A certain number of brightly colored, active female adult mites were placed, 24h later, adult mites were removed, and leaves with insufficient eggs were removed. When eggs were hatched and grew into nymphs, spray treatment was performed. The experiment was repeated three times, and a blank control was set, and placed to an observation room (26±2° C., humidity 70%˜80%, 16h light per day) for culture. 48 h later, the results were investigated. The nymphs were gently touched during investigation, and if no response, they were regarded as deaths.

[4] = concentration 5 mg/L, spray, non-incubated eggs counted as dead
[5] = 48 h, concentration 2.5 mg/L, read-out: nymph-killing activity
[6] = 48 h, read-out: nymph-killing activity
[7] = concentration 2.5 mg/L, 48 h, read-out: nymph-killing activity

Row | Compound | pest or weed control at 5 µg/mL [1, 4] | pest or weed control at 2.5 µg/mL ([2]; concentration 2.5 mg/L) | pest or weed control at 2.5 µg/mL [3, 5] | pest or weed control at 5 µg/mL [1] | pest or weed control at 2.5 µg/mL [2] | pest or weed control at 2.5 µg/mL [3, 6] | pest or weed control at 2.5 µg/mL [3, 7]
1 | Cc1cc(/C(OCOC(=O)C2CCCCC2)=C(\C#N)c2ccc(C(C)(C)C)cc2)n(C)n1 [Compound 11] | ≥ 90% | ≥ 90% | ≥ 95% | – | – | – | –
2 | Cc1cc(/C(OCOC(=O)CF)=C(\C#N)c2ccc(C(C)(C)C)cc2)n(C)n1 [Compound 12] | – | – | – | ≥ 90% | ≥ 90% | ≥ 95% | –
3 | Cc1cc(/C(OCOC(=O)C(F)(F)F)=C(\C#N)c2ccc(C(C)(C)C)cc2)n(C)n1 [Compound 13] | ≥ 90% | ≥ 90% | ≥ 95% | – | – | – | –
4 | Cc1cc(/C(OCOC(=O)c2ccccc2)=C(\C#N)c2ccc(C(C)(C)C)cc2)n(C)n1 [Compound 14] | ≥ 90% | ≥ 90% | ≥ 95% | – | – | – | –
5 | Cc1cc(/C(OCOC(=O)Cc2ccccc2)=C(\C#N)c2ccc(C(C)(C)C)cc2)n(C)n1 [Compound 15] | ≥ 90% | ≥ 90% | – | – | – | – | ≥ 95%
6 | CCC(C)(C)C(=O)OCO/C(=C(/C#N)c1ccc(C(C)(C)C)cc1)c1cc(C)nn1C [Compound 16] | ≥ 90% | ≥ 90% | ≥ 95% | – | – | – | –
7 | C=CC(=O)OCO/C(=C(/C#N)c1ccc(C(C)(C)C)cc1)c1cc(C)nn1C [Compound 17] | ≥ 90% | ≥ 90% | ≥ 95% | – | – | – | –
8 | CC(=O)OC(C)O/C(=C(/C#N)c1ccc(C(C)(C)C)cc1)c1cc(C)nn1C (stereo not drawn) [Compound 26] | ≥ 90% | ≥ 90% | ≥ 95% | – | – | – | –
9 | CCC(=O)OC(C)O/C(=C(/C#N)c1ccc(C(C)(C)C)cc1)c1cc(C)nn1C (stereo not drawn) [Compound 27] | ≥ 90% | ≥ 90% | ≥ 95% | – | – | – | –
10 | CCCC(=O)OC(C)O/C(=C(/C#N)c1ccc(C(C)(C)C)cc1)c1cc(C)nn1C (stereo not drawn) [Compound 28] | ≥ 90% | ≥ 90% | ≥ 95% | – | – | – | –
11 | Cc1cc(/C(OC(C)OC(=O)C(C)C)=C(\C#N)c2ccc(C(C)(C)C)cc2)n(C)n1 (stereo not drawn) [Compound 29] | ≥ 90% | ≥ 90% | ≥ 95% | – | – | – | –
12 | Cc1cc(/C(OC(C)OC(=O)C(C)(C)C)=C(\C#N)c2ccc(C(C)(C)C)cc2)n(C)n1 (stereo not drawn) [Compound 30] | ≥ 90% | ≥ 90% | ≥ 95% | – | – | – | –
13 | CCCCC(=O)OC(C)O/C(=C(/C#N)c1ccc(C(C)(C)C)cc1)c1cc(C)nn1C (stereo not drawn) [Compound 31] | ≥ 90% | ≥ 90% | ≥ 95% | – | – | – | –
14 | Cc1cc(/C(OC(C)OC(=O)CC(C)C)=C(\C#N)c2ccc(C(C)(C)C)cc2)n(C)n1 (stereo not drawn) [Compound 32] | ≥ 90% | ≥ 90% | ≥ 95% | – | – | – | –
15 | COCC(=O)OC(C)O/C(=C(/C#N)c1ccc(C(C)(C)C)cc1)c1cc(C)nn1C (stereo not drawn) [Compound 33] | ≥ 90% | ≥ 90% | ≥ 95% | – | – | – | –
16 | Cc1cc(/C(OC(C)OC(=O)C2CC2)=C(\C#N)c2ccc(C(C)(C)C)cc2)n(C)n1 (stereo not drawn) [Compound 34] | ≥ 90% | ≥ 90% | ≥ 95% | – | – | – | –
17 | CSCC(=O)OC(C)O/C(=C(/C#N)c1ccc(C(C)(C)C)cc1)c1cc(C)nn1C (stereo not drawn) [Compound 35] | ≥ 90% | ≥ 90% | ≥ 95% | – | – | – | –
18 | Cc1cc(/C(OC(C)OC(=O)C2CCCCC2)=C(\C#N)c2ccc(C(C)(C)C)cc2)n(C)n1 (stereo not drawn) [Compound 36] | ≥ 90% | ≥ 90% | ≥ 95% | – | – | – | –
19 | Cc1cc(/C(OC(C)OC(=O)CF)=C(\C#N)c2ccc(C(C)(C)C)cc2)n(C)n1 (stereo not drawn) [Compound 37] | – | – | – | ≥ 90% | ≥ 90% | ≥ 95% | –
20 | Cc1cc(/C(OC(C)OC(=O)C(F)(F)F)=C(\C#N)c2ccc(C(C)(C)C)cc2)n(C)n1 (stereo not drawn) [Compound 38] | ≥ 90% | ≥ 90% | ≥ 95% | – | – | – | –

Row | Compound | pest or weed control at 5 µg/mL [1, 4] | pest or weed control at 2.5 µg/mL ([2]; concentration 2.5 mg/L) | pest or weed control at 2.5 µg/mL [3, 5] | pest or weed control at 5 µg/mL [1] | pest or weed control at 2.5 µg/mL [2] | pest or weed control at 2.5 µg/mL [3, 6] | pest or weed control at 2.5 µg/mL [3, 7]
21 | Cc1cc(/C(OC(C)OC(=O)c2ccccc2)=C(\C#N)c2ccc(C(C)(C)C)cc2)n(C)n1 (stereo not drawn) [Compound 39] | ≥ 90% | ≥ 90% | ≥ 95% | – | – | – | –
22 | Cc1cc(/C(OC(C)OC(=O)Cc2ccccc2)=C(\C#N)c2ccc(C(C)(C)C)cc2)n(C)n1 (stereo not drawn) [Compound 40] | ≥ 90% | ≥ 90% | – | – | – | – | ≥ 95%
23 | CCC(C)(C)C(=O)OC(C)O/C(=C(/C#N)c1ccc(C(C)(C)C)cc1)c1cc(C)nn1C (stereo not drawn) [Compound 41] | ≥ 90% | ≥ 90% | ≥ 95% | – | – | – | –
24 | C=CC(=O)OC(C)O/C(=C(/C#N)c1ccc(C(C)(C)C)cc1)c1cc(C)nn1C (stereo not drawn) [Compound 42] | ≥ 90% | ≥ 90% | ≥ 95% | – | – | – | –
25 | CC(=O)OCO/C(=C(/C#N)c1ccc(C(C)(C)C)cc1)c1c(Cl)c(C)nn1C [Compound 76] | ≥ 90% | ≥ 90% | ≥ 95% | – | – | – | –
26 | CCC(=O)OCO/C(=C(/C#N)c1ccc(C(C)(C)C)cc1)c1c(Cl)c(C)nn1C [Compound 77] | ≥ 90% | ≥ 90% | ≥ 95% | – | – | – | –
27 | CCCC(=O)OCO/C(=C(/C#N)c1ccc(C(C)(C)C)cc1)c1c(Cl)c(C)nn1C [Compound 78] | ≥ 90% | ≥ 90% | ≥ 95% | – | – | – | –
28 | Cc1nn(C)c(/C(OCOC(=O)C(C)C)=C(\C#N)c2ccc(C(C)(C)C)cc2)c1Cl [Compound 79] | ≥ 90% | ≥ 90% | ≥ 95% | – | – | – | –
29 | Cc1nn(C)c(/C(OCOC(=O)C(C)(C)C)=C(\C#N)c2ccc(C(C)(C)C)cc2)c1Cl [Compound 80] | ≥ 90% | ≥ 90% | ≥ 95% | – | – | – | –
30 | CCCCC(=O)OCO/C(=C(/C#N)c1ccc(C(C)(C)C)cc1)c1c(Cl)c(C)nn1C [Compound 81] | ≥ 90% | ≥ 90% | ≥ 95% | – | – | – | –
31 | Cc1nn(C)c(/C(OCOC(=O)CC(C)C)=C(\C#N)c2ccc(C(C)(C)C)cc2)c1Cl [Compound 82] | ≥ 90% | ≥ 90% | ≥ 95% | – | – | – | –
32 | COCC(=O)OCO/C(=C(/C#N)c1ccc(C(C)(C)C)cc1)c1c(Cl)c(C)nn1C [Compound 83] | ≥ 90% | ≥ 90% | ≥ 95% | – | – | – | –
33 | Cc1nn(C)c(/C(OCOC(=O)C2CC2)=C(\C#N)c2ccc(C(C)(C)C)cc2)c1Cl [Compound 84] | ≥ 90% | ≥ 90% | ≥ 95% | – | – | – | –
34 | CSCC(=O)OCO/C(=C(/C#N)c1ccc(C(C)(C)C)cc1)c1c(Cl)c(C)nn1C [Compound 85] | ≥ 90% | ≥ 90% | ≥ 95% | – | – | – | –
35 | Cc1nn(C)c(/C(OCOC(=O)C2CCCCC2)=C(\C#N)c2ccc(C(C)(C)C)cc2)c1Cl [Compound 86] | ≥ 90% | ≥ 90% | ≥ 95% | – | – | – | –
36 | Cc1nn(C)c(/C(OCOC(=O)CF)=C(\C#N)c2ccc(C(C)(C)C)cc2)c1Cl [Compound 87] | – | – | – | ≥ 90% | ≥ 90% | ≥ 95% | –
37 | Cc1nn(C)c(/C(OCOC(=O)C(F)(F)F)=C(\C#N)c2ccc(C(C)(C)C)cc2)c1Cl [Compound 88] | ≥ 90% | ≥ 90% | ≥ 95% | – | – | – | –
38 | Cc1nn(C)c(/C(OCOC(=O)c2ccccc2)=C(\C#N)c2ccc(C(C)(C)C)cc2)c1Cl [Compound 89] | ≥ 90% | ≥ 90% | ≥ 95% | – | – | – | –
39 | Cc1nn(C)c(/C(OCOC(=O)Cc2ccccc2)=C(\C#N)c2ccc(C(C)(C)C)cc2)c1Cl [Compound 90] | ≥ 90% | ≥ 90% | – | – | – | – | ≥ 95%
